The test system of assay [1] is rats subjected to embolic MCA occlusion. Nature of the assay: Infarct volume after embolic MCA occlusion, SNAP study. Type of assay: in vivo, rat. Conditions: SNAP 30 μg/kg iv bolus then 300 μg/kg/h for 60 minutes at 24 hours after MCA occlusion; 14 days; vs saline. The procedure:
(§1) The question arises as to the specificity of this NO agent for the induction of neurogenesis and functional benefit. Are the effects specific for DETA/NONOate or would other agents that donate NO likewise provide functional benefit? To test this question, rats were treated with another NO donor, S-nitroso-N-acetylpenicillamine (SNAP, Sigma) that is structurally different from DETA/NONOate. Young, male adult Wistar rats were subjected to embolic MCA occlusion (Zhang et al., 1997). SNAP at a dose of 30 μg/kg was intravenously administered to rats as a bolus followed by 300 μg/kg/h infusion for 60 minutes at 24 hours after embolic MCA occlusion. As functional outcome measures, the rotarod test which assesses motor function such as coordination and balance (Zhang et al., 2000), the adhesive removal test which measures forelimb somato-sensorimotor asymmetries (Schallert et al., 2000), and animal body weight were measured prior to treatment and at 2, 4, 7, and 14 days after treatment. Animals were sacrificed at 14 days after stroke and the infarct volume was measured (Zhang, et al., 1997). […] These benefits persisted to the time of sacrifice at 14 days post stroke. […] Thus, the effect of the treatment is one of restorative therapy not neuroprotective therapy. […] Functional improvement in these animals is associated with change and remodeling of brain. […]

For assay [2] the test system is unchanged. The experiment in a line: Rotarod test after embolic MCA occlusion, SNAP study. Type of assay: in vivo, rat. Particulars: SNAP at 24 hours after MCA occlusion; by 4 days after stroke, persisted to 14 days. Here is the method: as §1
For assay [3] the test system is unchanged. Nature of the assay: Adhesive removal test after embolic MCA occlusion, SNAP study. Particulars: SNAP at 24 hours after MCA occlusion; by 4 days after stroke, persisted to 14 days. Type of assay: in vivo, rat. The procedure:
as §1

Assay [4] is described as follows: Animal body weight after embolic MCA occlusion, SNAP study. Type of assay: in vivo, rat. Conditions: SNAP at 24 hours after MCA occlusion; 7 days after stroke; vs saline. Here is the method:
as §1

In assay [5] the test system is Mouse brain-derived endothelial cells. Nature of the assay: Capillary-like tube formation assay. Type of assay: cell-based. Here is the method: An in vitro angiogenesis assay was performed. Briefly, 0.8 ml of growth factor reduced Matrigel (Becton Dickinson) was added to pre-chilled 35 mm culture dishes and allowed to polymerize at 37° C. for 2 to 5 hours. […] For quantitative measurements of capillary tube formation, three random areas of Matrigel dishes were imaged and the length of continuous cords of three or more cells was measured.

The test system of another assay is basilar artery. Particulars: rats; cited from earlier work.
A further assay deals with dog cerebral arteries. Particulars: cited from earlier work.
The next assay relates to cGMP. Particulars: local administration to rat brain slices; cited from earlier work.

As to `CC(=O)N[C@H](C(=O)O)C(C)(C)SN=O` (racemic) [SNAP, S-nitroso-N-acetylpenicillamine], the “volume of cerebral infarction” value in assay [1] was “no significant difference”. Further, the “function measured with the rotarod” value in assay [2] is recorded as “significant improvement”. In addition, the “function measured with the adhesive removal test” value in assay [3] was “significant improvement”. The Animal body weight entry in assay [4] is reported as “significantly increased”.
On to `Nc1nc2c(nc(Br)n2[C@@H]2O[C@@H]3COP(=O)(O)O[C@H]3[C@H]2O)c(=O)[nH]1` [8-BrcGMP, 8-Br-cGMP], for which the capillary-like tube formation entry in assay [5] (8-BrcGMP 1 mM) is reported as “significantly (p<0.05) increased”.
With `O=c1onc2cnc3ccccc3n12` [ODQ, 1H-[1,2,4]oxadiazolo[4,3-a]quinoxaline-1-one], the “inhibition of DETANONOate-induced capillary-like tube formation” value in assay [5] (DETANONOate in the presence of ODQ) is “completely inhibited”. Also, the “inhibition of 8-BrcGMP-induced capillary-like tube formation” value in assay [5] (ODQ) was “did not significantly inhibit”. In addition, in assay [5] (ODQ 10 μM, Sildenafil 300 nM), the “inhibition of Sildenafil-induced capillary-like tube formation” value is listed as “significantly inhibited”.
`CCCOc1ccccc1-c1nc2nn[nH]c2c(=O)[nH]1` [zaprinast]: in the assay with basilar artery, the “dilatation of the basilar artery” value was “elicits dilatation of the basilar artery”. Moreover, in the assay on dog cerebral arteries, the “dilatation of cerebral arteries” value is “produces dilatation of dog cerebral arteries”. Further, the cGMP release entry in the assay with cGMP was “increase of cGMP release”.

The values above are taken from patent US20120009152A1, “NITRIC OXIDE DONORS FOR TREATMENT OF DISEASE AND INJURY” (priority 2002, published 2012).
